Experimental data reported in patent US20200188466A1, “COMPOSITIONS OF SCHISANDRA EXTRACTS AND METHODS THEREOF” (Reyoung Corporation, priority 2017, published 2020).

Assay: in vivo
Design: species or system Sprague Dawley rats
Settings: male, Sprague Dawley, rat, po, 2.4 mg/kg
Procedure: 42 Male Sprague Dawley rats (weight, 220-280 g) were maintained on a 12-hour light/dark cycle with free access to water and lab chow for 10-14 hours prior to the experiment. Rats were randomly divided into 7 groups (n=6/group) and groups 2-7 received 0 mg/kg, 6.0 mg/kg, and 12.0 mg/kg, 24.0 mg/kg, 48.0 mg/kg and 60.0 mg/kg of Schisandrin A in 1% CMC-Na (300-800 cps) via oral administration, respectively. After 5 minutes, all the groups received 2.4 mg/kg of triptolide in a solution of 2% DMSO-98% Sterile Water via oral administration.
After triptolide treatment, blood samples were collected from individual rat at 5 min, 10 min, 15 min, 20 min, 30 min, 45 min, 1 h, 2 h, 4 h, 8 h, and 24 h, respectively. Plasma was separated by centrifugation at 8000 rpm for 6 minutes at 4° C. and kept at −80° C. until analysis. Plasma homogenate was injected into LC-MS/MS for analysis.

- AUC(0-t) (AUC0→t of triptolide): 31.5 ± 25.4 ng·h/mL
- AUC(0-inf) (AUC0→∞ of triptolide): 31.5 ± 25.4 ng·h/mL
- Cmax (Cmax of triptolide): 56.4 ± 25.1 ng/mL
- MRT last (MRT0→t of triptolide): 25.8 ± 9.6 min
- MRT inf (MRT0→∞ of triptolide): 39.6 ± 21 min
- half-life (T1/2 of triptolide): 25.2 ± 13.8 min
- Tmax (Tmax of triptolide): 9.96 ± 5.4 min
Structure (SMILES): CC(C)[C@]12O[C@H]1[C@@H]1O[C@]13[C@]1(O[C@H]1C[C@H]1C4=C(CC[C@@]13C)C(=O)OC4)[C@@H]2O [triptolide]
